Measured values published in patent publication US20230339877A1, “Synthesis and Composition of Neurolenin D Mesylate and Related Compounds - New Drugs for the Treatment of Parasitic Nematode Infections in Humans, Animals and Plants” (Smith College, priority 2022, published 2023).
Structures can show the parent of a compound that is named as a salt.

Experiments:
[1] = Biological activity assays for toxicity and mutagenicity; conditions: preliminary data
[2] = tested on: adult male Brugia pahangi parasites (BP AM); test: Killing of adult male Brugia pahangi parasites (BP AM) in culture; type: cell-based
Procedure: (§1) The drug was applied at 1, 2 and 3 parts per million (ppm) and was 100% effective at killing the parasites at all three concentrations. Even at 1 ppm, all parasites were killed within 120 hours after treatment. The control treatment is with 1, 2 and 3 ppm ethanol given to the parasites in culture under the same conditions. One adult male parasite treated with 1 ppm ethanol died at about 40 hours. This death is not experimentally significant as occasionally a parasite dies in culture without any drug treatment.

microfilariae (larvae) = test: Killing of microfilariae (larvae) produced following mating of adult parasites; type: cell-based, Brugia pahangi; conditions: repeated experiments
Source text: 100% of all adult male and female parasites are always killed upon treatment with NDM.

[3] = tested on: adult female Brugia pahangi parasites (BP AF); test: Killing of adult female Brugia pahangi parasites (BP AF) in culture; type: cell-based
Procedure: as §1, with “90” for “120”, “female” for “male”, “80” for “40”

[4] = repeated in many separate trials

For `C=C1C(=O)O[C@@H]2C[C@H](C)/C=C\C(=O)[C@](C)(O)[C@@H](OS(C)(=O)=O)[C@@H](OC(=O)CC(C)C)[C@@H]12` [NDM, Neurolenin D Mesylate], the mutagenicity [1] was “not toxic or mutagenic”, the toxicity [1] was “not toxic” and the “time after treatment by which all parasites were killed” value ([2]; adult male BP in culture, 1 ppm) was at most 120 h. The “effective at killing the parasites” value ([2]; adult male BP in culture, drug applied at 1, 2 and 3 ppm, all three concentrations, FIG. 2) was 100%, the “speed of killing compared with other neurolenin derivatives” value ([2]; adult male BP, FIG. 2, at the endpoint 100% of worms killed) was “more slowly” and the “adult male parasites killed upon treatment” value [2, 4] was 100%. The “microfilariae (larvae) killed” value (microfilariae (larvae)) was 100%, the “time after treatment by which all parasites were killed” value ([3]; adult female BP in culture, 1 ppm) was at most 90 h and the “effective at killing the parasites” value ([3]; adult female BP in culture, drug applied at 1, 2 and 3 ppm, all three concentrations, FIG. 1) was 100%. For the same compound, the “speed of killing compared with other neurolenin derivatives” value ([3]; adult female BP, FIG. 1, at the endpoint 100% of worms killed) was “more slowly” and the “adult female parasites killed upon treatment” value [3, 4] was 100%.
